Reference: patent publication US20250136946A1, “REAL-TIME CHEMICAL SCREENING METHOD USING LIVER ORGANOIDS FLUORESCENTLY LABELED WITH CYTOCHROME P450 1A1 ENZYME” (priority 2023, published 2025)
Where two headings read alike, the source gives them in different places.

Columns and labels:
CYP1A1 [1] = conditions: for mCherry fluorescence intensity at different concentrations: real-time, TCDD positive control
Method: The CYP1A1 fluorescently labelled stem cell line-derived hepatic organoids were treated with the selected hazardous chemicals, tert-butylhydroquinone (tBHQ), 1,2-naphtoquinone (1,2-NQ), and 1,4-naphtoquinone (1,4-NQ) to observe the changes in mCherry fluorescence intensity in real-time.

CYP1A1 [2] = test: CYP1A1 mRNA expression level in CYP1A1-mCherry hPSC-derived hepatic organoids; assay type: cell-based, human
[3] = hepatic organoids, real-time fluorescence, 24 hours of treatment

With `Cc1ccccc1N=Nc1ccc(NC(=O)c2ccnn2C)c(C)c1` [CH223191] the “mCherry fluorescence intensity, treated together with AHR agonists” value (CYP1A1 [1]; hepatic organoids, treated together with TCDD and BaP) was “decreased”, the “mCherry fluorescence intensity, treated together with three hazardous chemicals” value (CYP1A1 [1]; hepatic organoids, treated together with tBHQ, 1,2-NQ, 1,4-NQ) was “decreased” and the “CYP1A1 gene expression level, treated together with AHR agonists” value (CYP1A1 [2]; treated together with TCDD and BaP) was “decreased”. The “CYP1A1 mRNA expression level, treated together with three hazardous chemicals” value (CYP1A1 [2]; treated together with tBHQ, 1,2-NQ, 1,4-NQ) was “decrease”.

In the case of `Cc1oncc1C(=O)Nc1ccc(C(F)(F)F)cc1` [leflunomide], the “mCherry fluorescence intensity in hepatic organoids” value (CYP1A1 [1]) is reported as “increase”.

`COc1cccc2c1C(=O)c1c(O)c3c(c(O)c1C2=O)C[C@@](O)(C(=O)CO)C[C@@H]3O[C@H]1C[C@H](N)[C@H](O)[C@H](C)O1` [DOX, doxorubicin] was tested, and the “mCherry fluorescence intensity in hepatic organoids” value (CYP1A1 [1]) was “increase”.

In the case of `O=C1C=CC(=O)c2ccccc21` [1,4-NQ, 1,4-Naphtoquinone], the “mCherry fluorescence intensity at different concentrations” value (CYP1A1 [1]; hepatic organoids) is reported as “increased in a concentration-dependent manner”.

In the case of `O=Cc1c2c(cc3c1=Nc1ccccc1-3)=Nc1ccccc1-2` [FICZ, 6-formylindolo [3,2-B]carbazole], the “mCherry fluorescence intensity in hepatic organoids” value (CYP1A1 [1]; [3]) is reported as “increase”.

With `CC(=O)[C@]1(O)Cc2c(O)c3c(c(O)c2[C@@H](O[C@H]2C[C@H](N)[C@H](O)[C@H](C)O2)C1)C(=O)c1ccccc1C3=O` [idarubicin] the “mCherry fluorescence intensity in hepatic organoids” value (CYP1A1 [1]) was “increase”.

`COc1cccc2c1C(=O)c1c(O)c3c(c(O)c1C2=O)C[C@@](O)(C(C)=O)C[C@@H]3O[C@H]1C[C@H](N)[C@H](O)[C@H](C)O1` [daunorubicin] was tested, and the “mCherry fluorescence intensity in hepatic organoids” value (CYP1A1 [1]) was “increase”.

With `CC(C)(C)c1cc(O)ccc1O` [tBHQ, tert-Butylhydroquinone] the “mCherry fluorescence intensity at different concentrations” value (CYP1A1 [1]; hepatic organoids) was “increased in a concentration-dependent manner”.

In the case of `Cc1ccc2cc3c(ccc4ccccc43)c3c2c1CC3` [3-MC, 3-methylcholanthrene], the “mCherry fluorescence intensity in hepatic organoids” value (CYP1A1 [1]; [3]) is reported as “increase”.

For `Clc1cc2c(cc1Cl)Oc1cc(Cl)c(Cl)cc1O2` [TCDD, 2,3,7,8-tetrachlorodibenzo-p-dioxin], the “mCherry fluorescence intensity, time-lapse imaging” value (CYP1A1 [1]; hepatic organoids, 3-hour intervals up to 72 hours after treatment) was “increased in a time-dependent manner”, the mCherry fluorescence (CYP1A1 [1]; hepatic organoids, 24 hours after treatment, imaging device) was “increase” and the “CYP1A1 mRNA expression level” value (CYP1A1 [2]; 24 hours after treatment) was “increased”.

`O=C1C=Cc2ccccc2C1=O` [1,2-NQ, 1,2-Naphtoquinone] was tested, and the “mCherry fluorescence intensity at different concentrations” value (CYP1A1 [1]; hepatic organoids) was “increased in a concentration-dependent manner”.
